In ChEMBL document CHEMBL3885881, “DrugMatrix”:

Species: Rattus norvegicus
Experiment: DrugMatrix - Regimen: Daily Repeat
Assay type: toxicity, organism-based, Sprague-Dawley
Set-up: regimen Daily Repeat, gender Male, age 6-8 weeks
Settings: in vivo, po, route oral GAVAGE, vehicle 100 % WATER; for BASOPHIL / EOSINOPHIL / ERYTHROCYTE COUNT / HEMATOCRIT / HEMOGLOBIN / LEUKOCYTE COUNT / LYMPHOCYTE / MEAN CORPUSCULAR HEMOGLOBIN / MEAN CORPUSCULAR HEMOGLOBIN CONCENTRATION / MEAN CORPUSCULAR VOLUME / MONOCYTE / NEUTROPHIL / PLATELET COUNT: tissue Blood; for ALANINE AMINOTRANSFERASE / ALBUMIN / ALKALINE PHOSPHATASE / ASPARTATE AMINOTRANSFERASE / BLOOD UREA NITROGEN / CHLORIDE / CHOLESTEROL / CREATINE PHOSPHOKINASE / CREATININE / GLUCOSE / PHOSPHORUS / POTASSIUM / SODIUM / TOTAL BILIRUBIN / TOTAL PROTEIN: tissue Plasma
[1] = 0 mg/kg, 72 h, dose level Control, time 3 day
[2] = 0 mg/kg, 120 h, dose level Control, time 5 day
[3] = 100 mg/kg, 72 h, dose level Low, time 3 day

Oc1cccc(O)c1O [PYROGALLOL]
BASOPHIL [1]: 0% | EOSINOPHIL [1]: 0.5% | ERYTHROCYTE COUNT [1]: 5.8 x10E6/uL | HEMATOCRIT [1]: 35.07% | HEMOGLOBIN [1]: 14.12 G/DL | LEUKOCYTE COUNT [1]: 13.7 x10E3/uL | LYMPHOCYTE [1]: 82.33% | MEAN CORPUSCULAR HEMOGLOBIN [1]: 24.38 pg | MEAN CORPUSCULAR HEMOGLOBIN CONCENTRATION [1]: 40.28 G/DL | MEAN CORPUSCULAR VOLUME [1]: 60.52 fL | MONOCYTE [1]: 2.67% | NEUTROPHIL [1]: 14.5% | PLATELET COUNT [1]: 911.5 x10E3/uL | ALANINE AMINOTRANSFERASE [1]: 36.83 u/L | ALBUMIN [1]: 3.75 G/DL | ALKALINE PHOSPHATASE [1]: 399.83 u/L | ASPARTATE AMINOTRANSFERASE [1]: 66 u/L | BLOOD UREA NITROGEN [1]: 14.67 mg/dL | CHLORIDE [1]: 101.67 MEQ/L | CHOLESTEROL [1]: 66.33 mg/dL | CREATINE PHOSPHOKINASE [1]: 139.5 u/L | CREATININE [1]: 0.92 mg/dL | GLUCOSE [1]: 175 mg/dL | PHOSPHORUS [1]: 11.42 mg/dL | POTASSIUM [1]: 7.03 MEQ/L | SODIUM [1]: 148.5 MEQ/L | TOTAL BILIRUBIN [1]: 1.13 mg/dL | TOTAL PROTEIN [1]: 6.87 G/DL | BASOPHIL [2]: 0% | EOSINOPHIL [2]: 0.2% | ERYTHROCYTE COUNT [2]: 6.02 x10E6/uL | HEMATOCRIT [2]: 36.48% | HEMOGLOBIN [2]: 14.38 G/DL | LEUKOCYTE COUNT [2]: 12.34 x10E3/uL | LYMPHOCYTE [2]: 83% | MEAN CORPUSCULAR HEMOGLOBIN [2]: 23.92 pg | MEAN CORPUSCULAR HEMOGLOBIN CONCENTRATION [2]: 39.44 G/DL | MEAN CORPUSCULAR VOLUME [2]: 60.66 fL | MONOCYTE [2]: 3% | NEUTROPHIL [2]: 13.8% | PLATELET COUNT [2]: 1190.6 x10E3/uL | ALANINE AMINOTRANSFERASE [2]: 43 u/L | ALBUMIN [2]: 3.73 G/DL | ALKALINE PHOSPHATASE [2]: 393 u/L | ASPARTATE AMINOTRANSFERASE [2]: 62.33 u/L | BLOOD UREA NITROGEN [2]: 16.33 mg/dL | CHLORIDE [2]: 101.67 MEQ/L | CHOLESTEROL [2]: 65.5 mg/dL | CREATINE PHOSPHOKINASE [2]: 130.67 u/L | CREATININE [2]: 0.58 mg/dL | GLUCOSE [2]: 180.67 mg/dL | PHOSPHORUS [2]: 11.28 mg/dL | POTASSIUM [2]: 7.05 MEQ/L | SODIUM [2]: 148.17 MEQ/L | TOTAL BILIRUBIN [2]: 0.72 mg/dL | TOTAL PROTEIN [2]: 6.83 G/DL | BASOPHIL [3]: 0% | EOSINOPHIL [3]: 0.5% | ERYTHROCYTE COUNT [3]: 5.78 x10E6/uL | HEMATOCRIT [3]: 35.75% | HEMOGLOBIN [3]: 13.85 G/DL | LEUKOCYTE COUNT [3]: 11.7 x10E3/uL | LYMPHOCYTE [3]: 88% | MEAN CORPUSCULAR HEMOGLOBIN [3]: 24.05 pg | MEAN CORPUSCULAR HEMOGLOBIN CONCENTRATION [3]: 38.75 G/DL | MEAN CORPUSCULAR VOLUME [3]: 61.95 fL | MONOCYTE [3]: 1% | NEUTROPHIL [3]: 10.5% | PLATELET COUNT [3]: 1307.5 x10E3/uL | ALANINE AMINOTRANSFERASE [3]: 36.33 u/L | ALBUMIN [3]: 3.67 G/DL | ALKALINE PHOSPHATASE [3]: 323 u/L | ASPARTATE AMINOTRANSFERASE [3]: 59.33 u/L | BLOOD UREA NITROGEN [3]: 13 mg/dL | CHLORIDE [3]: 101.33 MEQ/L | CHOLESTEROL [3]: 71 mg/dL | CREATINE PHOSPHOKINASE [3]: 134.67 u/L | CREATININE [3]: 0.6 mg/dL | GLUCOSE [3]: 200 mg/dL | PHOSPHORUS [3]: 13.27 mg/dL | POTASSIUM [3]: 7.37 MEQ/L | SODIUM [3]: 149.67 MEQ/L | TOTAL BILIRUBIN [3]: 0.5 mg/dL | TOTAL PROTEIN [3]: 6.67 G/DL
